Reference: ChEMBL document CHEMBL4052656, “The synthesis and evaluation of triazolopyrimidines as anti-tubercular agents” (Bioorg Med Chem, 2017)
Active and inactive are the calls of the source. The rule behind the calls is not given here.

Key:
[1] = tested on: Mycobacterium tuberculosis; assay: Bactericidal activity against replicating Mycobacterium tuberculosis H37Rv after 21 days by agar dilution method; type: functional
[2] = tested on: Mycobacterium tuberculosis; assay: Bacteriostatic activity against replicating Mycobacterium tuberculosis H37Rv by agar dilution method; type: functional
[3] = Selectivity index, ratio of IC50 for human HepG2 cells to MIC90 for Mycobacterium tuberculosis H37Rv; type: toxicity; conditions: read-out: Selectivity Index

| SMILES | Activity [1] | Activity [2] | selectivity ratio [3] |
| --- | --- | --- | --- |
| COc1ccc(CCNc2cc(-c3ccccn3)nc3ncnn23)cc1 | inactive | Active | – |
| COc1ccc(CC(=O)Nc2cc(-c3ccccc3)nc3ncnn23)cc1 | inactive | Active | – |
| FC(F)(F)Oc1ccc(CCNc2cc(-c3ccccc3)nc3ncnn23)cc1 | inactive | Active | – |
| COc1ccc(CCNc2cc(-c3ccc(F)cc3)nc3ncnn23)cc1 | – | – | > 21 |
